Experimental data published in the supplement of paper PMC10307832.

Tests used:
Test in all cases: relative viability (nuclei count vs DMSO), 5 days (fraction); higher = more cells survive
[1] = tested on: NCI-H2405
Outline: (§1)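 For relative viability, nuclei counts in treated wells were divided by those in vehicle wells. Lung cancer cell lines had been pin-tool dosed in 1536-well plates the day after seeding and cultured for 5 days, then fixed and stained in one step (final 0.05% Triton X-100, 1% formaldehyde, 1 ug/ml Hoechst) and imaged at 4×. Doses were one drug alone or a fixed anchor-drug dose plus five library-drug doses (not always all listed) in √10 steps, and values are duplicate-plate medians.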

[2] = tested on: NCI-H1734
Outline: as §1

[3] = tested on: NCI-H2170
Outline: as §1

[4] = tested on: NCI-H647
Outline: as §1

[5] = tested on: NCI-H441
Outline: as §1

[6] = tested on: LOU-NH91
Outline: as §1

[7] = tested on: H3255
Outline: as §1

[8] = tested on: 201T
Outline: as §1

[9] = tested on: NCI-H1563
Outline: as §1

[10] = tested on: RERF-LC-KJ
Outline: as §1

[11] = tested on: NCI-H2085
Outline: as §1

[12] = tested on: COR-L23
Outline: as §1

[13] = tested on: NCI-H1793
Outline: as §1

[14] = tested on: NCI-H1993
Outline: as §1

[15] = tested on: NCI-H3122
Outline: as §1

[16] = tested on: NCI-H2023
Outline: as §1

[17] = tested on: NCI-H1650
Outline: as §1

[18] = tested on: PC-14
Outline: as §1

[19] = tested on: NCI-H2347
Outline: as §1

[20] = tested on: HCC-44
Outline: as §1

[21] = tested on: SW 900
Outline: as §1

[22] = tested on: NCI-H520
Outline: as §1

[23] = tested on: EPLC-272H
Outline: as §1

Q: What does the source list for `CC1(C)CCC(c2ccc(Cl)cc2)=C(CN2CCN(c3ccc(C(=O)NS(=O)(=O)c4ccc(N[C@H](CCN5CCOCC5)CSc5ccccc5)c(S(=O)(=O)C(F)(F)F)c4)cc3)CC2)C1` [Navitoclax] + Nc1nc2[nH]cc(CCc3ccc(C(=O)N[C@@H](CCC(=O)O)C(=O)O)cc3)c2c(=O)[nH]1 [Pemetrexed] (partner 0.2 µM)?
A: relative viability ([1]; first compound 0.005 µM): 1.02; relative viability ([1]; first compound 0.01581 µM): 1.07; relative viability ([1]; first compound 0.05 µM): 1.11; relative viability ([1]; first compound 0.1581 µM): 0.994; relative viability ([1]; first compound 0.5 µM): 0.896; relative viability ([2]; first compound 0.005 µM): 0.394; relative viability ([2]; first compound 0.01581 µM): 0.421; relative viability ([2]; first compound 0.1581 µM): 0.367; relative viability ([2]; first compound 0.5 µM): 0.381; relative viability ([3]; first compound 0.005 µM): 0.292; relative viability ([3]; first compound 0.01581 µM): 0.272; relative viability ([3]; first compound 0.05 µM): 0.273; relative viability ([3]; first compound 0.1581 µM): 0.266; relative viability ([3]; first compound 0.5 µM): 0.254; relative viability ([4]; first compound 0.005 µM): 0.166; relative viability ([4]; first compound 0.01581 µM): 0.175; relative viability ([4]; first compound 0.05 µM): 0.163; relative viability ([4]; first compound 0.1581 µM): 0.14; relative viability ([4]; first compound 0.5 µM): 0.128; relative viability ([5]; first compound 0.005 µM): 0.238; relative viability ([5]; first compound 0.01581 µM): 0.24; relative viability ([5]; first compound 0.05 µM): 0.258; relative viability ([5]; first compound 0.1581 µM): 0.232; relative viability ([5]; first compound 0.5 µM): 0.296; relative viability ([6]; first compound 0.005 µM): 0.308; relative viability ([6]; first compound 0.01581 µM): 0.304; relative viability ([6]; first compound 0.05 µM): 0.26; relative viability ([6]; first compound 0.1581 µM): 0.285; relative viability ([6]; first compound 0.5 µM): 0.219; relative viability ([7]; first compound 0.005 µM): 0.664; relative viability ([7]; first compound 0.01581 µM): 0.648; relative viability ([7]; first compound 0.05 µM): 0.571; relative viability ([7]; first compound 0.1581 µM): 0.581; relative viability ([7]; first compound 0.5 µM): 0.545; relative viability ([8]; first compound 0.005 µM): 0.299; relative viability ([8]; first compound 0.01581 µM): 0.31; relative viability ([8]; first compound 0.05 µM): 0.34; relative viability ([8]; first compound 0.1581 µM): 0.321; relative viability ([8]; first compound 0.5 µM): 0.357; relative viability ([9]; first compound 0.005 µM): 0.656; relative viability ([9]; first compound 0.01581 µM): 0.739; relative viability ([9]; first compound 0.05 µM): 0.608; relative viability ([9]; first compound 0.1581 µM): 0.805; relative viability ([9]; first compound 0.5 µM): 0.861; relative viability ([10]; first compound 0.005 µM): 0.476; relative viability ([10]; first compound 0.01581 µM): 0.38; relative viability ([10]; first compound 0.05 µM): 0.45; relative viability ([10]; first compound 0.1581 µM): 0.484; relative viability ([10]; first compound 0.5 µM): 0.496; relative viability ([11]; first compound 0.005 µM): 0.812; relative viability ([11]; first compound 0.01581 µM): 1.2; relative viability ([11]; first compound 0.05 µM): 0.852; relative viability ([11]; first compound 0.1581 µM): 0.931; relative viability ([11]; first compound 0.5 µM): 0.894; relative viability ([12]; first compound 0.005 µM): 0.208; relative viability ([12]; first compound 0.01581 µM): 0.188; relative viability ([12]; first compound 0.05 µM): 0.221; relative viability ([12]; first compound 0.1581 µM): 0.179; relative viability ([12]; first compound 0.5 µM): 0.201; relative viability ([13]; first compound 0.005 µM): 0.72; relative viability ([13]; first compound 0.01581 µM): 1.09; relative viability ([13]; first compound 0.1581 µM): 0.828; relative viability ([13]; first compound 0.5 µM): 0.643; relative viability ([14]; first compound 0.005 µM): 0.616; relative viability ([14]; first compound 0.01581 µM): 0.701; relative viability ([14]; first compound 0.05 µM): 0.474; relative viability ([14]; first compound 0.1581 µM): 0.653; relative viability ([14]; first compound 0.5 µM): 0.677; relative viability ([15]; first compound 0.005 µM): 0.207; relative viability ([15]; first compound 0.01581 µM): 0.176; relative viability ([15]; first compound 0.05 µM): 0.211; relative viability ([15]; first compound 0.1581 µM): 0.183; relative viability ([15]; first compound 0.5 µM): 0.209; relative viability ([16]; first compound 0.005 µM): 0.229; relative viability ([16]; first compound 0.01581 µM): 0.236; relative viability ([16]; first compound 0.05 µM): 0.258; relative viability ([16]; first compound 0.1581 µM): 0.214; relative viability ([16]; first compound 0.5 µM): 0.201; relative viability ([17]; first compound 0.005 µM): 0.365; relative viability ([17]; first compound 0.01581 µM): 0.412; relative viability ([17]; first compound 0.05 µM): 0.298; relative viability ([17]; first compound 0.1581 µM): 0.347; relative viability ([17]; first compound 0.5 µM): 0.334; relative viability ([18]; first compound 0.005 µM): 0.133; relative viability ([18]; first compound 0.01581 µM): 0.118; relative viability ([18]; first compound 0.05 µM): 0.136; relative viability ([18]; first compound 0.1581 µM): 0.108; relative viability ([18]; first compound 0.5 µM): 0.105; relative viability ([19]; first compound 0.005 µM): 0.443; relative viability ([19]; first compound 0.01581 µM): 0.439; relative viability ([19]; first compound 0.05 µM): 0.411; relative viability ([19]; first compound 0.1581 µM): 0.427; relative viability ([19]; first compound 0.5 µM): 0.437; relative viability ([20]; first compound 0.005 µM): 0.633; relative viability ([20]; first compound 0.01581 µM): 0.65; relative viability ([20]; first compound 0.05 µM): 0.625; relative viability ([20]; first compound 0.1581 µM): 0.603; relative viability ([20]; first compound 0.5 µM): 0.558; relative viability ([21]; first compound 0.005 µM): 0.471; relative viability ([21]; first compound 0.01581 µM): 0.476; relative viability ([21]; first compound 0.1581 µM): 0.452; relative viability ([21]; first compound 0.5 µM): 0.441; relative viability ([22]; first compound 0.005 µM): 0.713; relative viability ([22]; first compound 0.01581 µM): 0.743; relative viability ([22]; first compound 0.05 µM): 0.699; relative viability ([22]; first compound 0.1581 µM): 0.571; relative viability ([22]; first compound 0.5 µM): 0.681; relative viability ([23]; first compound 0.005 µM): 0.312; relative viability ([23]; first compound 0.01581 µM): 0.268; relative viability ([23]; first compound 0.05 µM): 0.347; relative viability ([23]; first compound 0.1581 µM): 0.354; relative viability ([23]; first compound 0.5 µM): 0.343
